# From ChEMBL document CHEMBL1135618, “Design and pharmacology of N-[(3R)-1,2,3,4-tetrahydroisoquinolinium- 3-ylcarbonyl]-(1R)-1-(4-chlorobenzyl)- 2-[4-cyclohexyl-4-(1H-1,2,4-triazol- 1-ylmethyl)piperidin-1-yl]-2-oxoethylamine (1), a potent, selective, melanocortin subtype-4 receptor agonist” (J Med Chem, 2002)
# Key:
# Melanocortin receptor 5 [1] = biological target: T1, Melanocortin receptor 5 (Homo sapiens, UniProt P33032); test: Maximum percentage of cAMP accumulation at 10 uM relative to alpha-MSH at MC5R; assay type: functional
# Melanocortin receptor 4 [2] = biological target: T2, Melanocortin receptor 4 (Homo sapiens, UniProt P32245); test: Evaluated for Functional Activity at Melanocortin-4 receptor as effective concentration at 50% maximum CMP accumulation
# [3] = biological target: Melanocortin receptor (M3 and M4) (Homo sapiens) (UniProt P32245+P41968); test: Evaluated for selectivity for MC3R versus MC4R displacing [125I]NDP-alpha-MSH radioligand expressed in CHO cells; assay type: cell-based
# [4] = tested on: Melanocortin receptor 5 + Melanocortin receptor 4 (Homo sapiens); test: Evaluated for selectivity for MC5R versus MC4R displacing [125I]NDP-alpha-MSH radioligand expressed in CHO cells
# Melanocortin receptor 4 [5] = biological target: T2, Melanocortin receptor 4
# Description: Evaluated for binding affinity against Melanocortin-4 receptor by displacing [125I]-NDP-alpha-MSH radioligand expressed in CHO cells
# Melanocortin receptor 3 [6] = biological target: T3, Melanocortin receptor 3 (Homo sapiens, UniProt P41968); test: Maximum percentage of cAMP accumulation at 10 uM relative to alpha-MSH at MC3R; assay type: functional
# Melanocortin receptor 3 [7] = biological target: T3, Melanocortin receptor 3; test: Evaluated for Functional Activity at MC3R as effective concentration at 50% maximum CMP accumulation
# Melanocortin receptor 4 [8] = biological target: T2, Melanocortin receptor 4; test: Maximum percent cAMP accumulation at 10 uM relative to alpha-MSH at Melanocortin-4 receptor; assay type: functional
# Melanocortin receptor 5 [9] = biological target: T1, Melanocortin receptor 5; test: Evaluated for Functional Activity at MC5R as effective concentration at 50% maximum CMP accumulation
# Melanocortin receptor 3 [10] = biological target: T3, Melanocortin receptor 3; test: Evaluated for Functional Activity at MC3R as % of cAMP accumulation at 10 uM relative to alpha-MSH
# [11] = biological target: Melanocortin receptor 3 (Rattus norvegicus) (UniProt P32244); test: Percentage of cAMP accumulation at 10 uM relative to alpha-MSH at rat Melanocortin-3 receptor; assay type: functional
# Melanocortin receptor 3 [12] = biological target: T4, Melanocortin receptor 3 (Rattus norvegicus, UniProt P32244); test: Functional activity as concentration at 50% maximum cAMP accumulation in rat Melanocortin-3 receptor (rMC3R)
# [13] = Evaluated for Plasma clearance in dog at dose 0.2 mg/kg (intravenous) and 0.5 mg/kg administered orally; assay type: ADME, organism-based, Canis lupus familiaris
# [14] = Volume of distribution evaluated at a dose 0.2 mg/kg (intravenous) and 0.5 mg/kg administered orally in dog
# Melanocortin receptor 5 [15] = biological target: T1, Melanocortin receptor 5; test: Evaluated for binding affinity against human melanocortin 5 (hMC5R) receptor by displacing [125I]NDP-alpha-MSH radioligand expressed in CHO cells; assay type: cell-based
# [16] = biological target: Melanocyte-stimulating hormone receptor (Homo sapiens) (UniProt Q01726); conditions: 10 uM
# Description: Percentage of cAMP accumulation at 10 uM relative to alpha-MSH at hMC1R
# Melanocortin receptor 5 [17] = biological target: T5, Melanocortin receptor 5 (Rattus norvegicus, UniProt P35345); test: Functional activity as concentration at 50% maximum cAMP accumulation in rat Melanocortin-5 receptor (rMC5R)
# [18] = Evaluated for half life in dog at dose 0.2 mg/kg (intravenous) and 0.5 mg/kg administered orally; assay type: ADME, organism-based, Canis lupus familiaris; conditions: in vivo
# [19] = Half life in rat evaluated at a dose 1 mg/kg (intravenous) and 10 mg/kg administered orally and was evaluated for; assay type: ADME, organism-based; conditions: in vivo
# [20] = Evaluated for maximum time Tmax in rat at a dose 1 mg/kg (intravenous) and 10 mg/kg administered orally; assay type: functional, organism-based
# [21] = Percent bioavailability in rat evaluated at a dose 1 mg/kg (intravenous) and 10 mg/kg administered orally and was evaluated for; assay type: ADME, organism-based; conditions: in vivo, po
# Melanocortin receptor 5 [22] = biological target: T5, Melanocortin receptor 5; test: Evaluated for binding affinity against rat Melanocortin-5 receptor (rMC5R) by displacing [125I]NDP-alpha-MSH radioligand expressed in CHO cells; assay type: cell-based
# [23] = biological target: Melanocortin receptor 5 (Rattus norvegicus) (UniProt P35345); test: Percentage of cAMP accumulation at 10 uM relative to alpha-MSH at rat Melanocortin-5 receptor; assay type: functional
# [24] = Evaluated for maximum time Tmax in dog at dose 0.2 mg/kg (intravenous) and 0.5 mg/kg administered orally; assay type: functional, organism-based
# [25] = Evaluated for % bioavailability in dogat a dose 0.2 mg/kg (intravenous) and 0.5 mg/kg administered orally; assay type: ADME, organism-based, Canis lupus familiaris; conditions: dog, in vivo, po
# Melanocortin receptor 3 [26] = biological target: T4, Melanocortin receptor 3; test: Evaluated for binding affinity against rat Melanocortin-3 receptor (rMC3R) by displacing [125I]-NDP-alpha-MSH radioligand expressed in CHO cells; assay type: cell-based
# Melanocortin receptor 5 [27] = biological target: T1, Melanocortin receptor 5; test: Functional activity as concentration at 50% maximum cAMP accumulation in human […] (MC5R) receptor
# [28] = Volume of distribution evaluated at a dose 1 mg/kg (intravenous) and 10 mg/kg administered orally in rat; assay type: functional, organism-based
# Melanocortin receptor 4 [29] = biological target: T6, Melanocortin receptor 4 (Rattus norvegicus, UniProt P70596); test: Functional activity as concentration at 50% maximum cAMP accumulation in rat Melanocortin-4 receptor (rMC4R)
# Melanocortin receptor 5 [30] = biological target: T1, Melanocortin receptor 5; conditions: 10 uM
# Description: Percentage of cAMP accumulation at 10 uM relative to alpha-MSH at human Melanocortin 5 receptor
# [31] = biological target: Melanocortin receptor 4 (Rattus norvegicus) (UniProt P70596); conditions: 10 uM
# Description: Percentage of cAMP accumulation at 10 uM relative to alpha-MSH at rat Melanocortin-4 receptor
# Melanocortin receptor 4 [32] = biological target: T6, Melanocortin receptor 4; test: Evaluated for binding affinity against rat Melanocortin-4 receptor (rMC4R) by displacing [125I]NDP-alpha-MSH radioligand expressed in CHO cells; assay type: cell-based
# [33] = Evaluated for plasma clearance in rat at a dose 1 mg/kg (intravenous) and 10 mg/kg administered orally; assay type: ADME, organism-based
# Melanocortin receptor 3 [34] = biological target: T3, Melanocortin receptor 3; conditions: 10 uM
# Description: Percentage of cAMP accumulation at 10 uM relative to alpha-MSH at human Melanocortin-3 receptor
# T2 sequence (P32245 whole entry): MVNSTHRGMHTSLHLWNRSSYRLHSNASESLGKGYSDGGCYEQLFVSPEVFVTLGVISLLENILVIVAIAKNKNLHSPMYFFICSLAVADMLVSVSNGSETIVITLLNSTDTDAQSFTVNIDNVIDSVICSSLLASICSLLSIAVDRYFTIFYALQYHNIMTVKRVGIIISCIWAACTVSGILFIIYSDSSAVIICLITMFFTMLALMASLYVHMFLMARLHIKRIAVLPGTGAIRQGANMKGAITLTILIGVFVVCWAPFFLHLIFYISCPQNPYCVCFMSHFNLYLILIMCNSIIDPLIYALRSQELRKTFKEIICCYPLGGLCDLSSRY
# T1 sequence (P33032 whole entry): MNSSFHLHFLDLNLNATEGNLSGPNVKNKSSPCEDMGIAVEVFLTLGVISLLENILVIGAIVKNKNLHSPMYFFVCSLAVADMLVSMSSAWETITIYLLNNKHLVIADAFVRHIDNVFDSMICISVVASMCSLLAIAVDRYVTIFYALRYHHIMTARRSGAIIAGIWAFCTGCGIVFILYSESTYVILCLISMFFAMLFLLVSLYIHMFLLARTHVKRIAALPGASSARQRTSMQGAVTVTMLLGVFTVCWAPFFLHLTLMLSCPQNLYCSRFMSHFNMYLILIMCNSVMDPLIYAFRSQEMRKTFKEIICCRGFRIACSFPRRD
# T3 sequence (P41968 whole entry): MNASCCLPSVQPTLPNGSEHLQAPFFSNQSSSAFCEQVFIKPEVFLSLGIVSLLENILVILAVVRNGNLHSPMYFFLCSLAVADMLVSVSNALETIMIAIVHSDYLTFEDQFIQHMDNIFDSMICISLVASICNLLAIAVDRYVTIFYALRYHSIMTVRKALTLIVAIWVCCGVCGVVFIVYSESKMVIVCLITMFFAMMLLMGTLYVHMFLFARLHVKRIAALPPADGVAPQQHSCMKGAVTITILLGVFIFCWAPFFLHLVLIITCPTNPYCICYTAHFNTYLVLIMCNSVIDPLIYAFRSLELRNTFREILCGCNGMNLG
# T6 sequence (P70596 whole entry): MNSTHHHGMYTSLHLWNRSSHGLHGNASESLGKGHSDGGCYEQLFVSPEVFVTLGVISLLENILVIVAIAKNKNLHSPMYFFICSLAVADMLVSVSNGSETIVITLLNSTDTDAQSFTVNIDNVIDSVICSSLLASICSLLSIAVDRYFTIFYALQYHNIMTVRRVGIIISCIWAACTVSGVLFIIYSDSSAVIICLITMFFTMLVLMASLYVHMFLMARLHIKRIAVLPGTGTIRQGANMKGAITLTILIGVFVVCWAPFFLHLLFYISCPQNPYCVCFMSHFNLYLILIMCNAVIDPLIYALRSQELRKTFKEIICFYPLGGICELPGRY
# T5 sequence (P35345 whole entry): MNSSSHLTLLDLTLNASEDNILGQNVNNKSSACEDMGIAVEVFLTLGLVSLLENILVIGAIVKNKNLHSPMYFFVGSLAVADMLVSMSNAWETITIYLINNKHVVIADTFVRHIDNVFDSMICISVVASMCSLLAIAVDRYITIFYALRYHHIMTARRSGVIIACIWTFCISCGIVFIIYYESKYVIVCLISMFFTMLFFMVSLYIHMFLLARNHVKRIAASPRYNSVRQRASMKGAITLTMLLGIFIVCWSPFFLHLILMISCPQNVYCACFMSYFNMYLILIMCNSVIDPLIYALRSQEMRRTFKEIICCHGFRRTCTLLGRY
# T4 sequence (P32244 whole entry): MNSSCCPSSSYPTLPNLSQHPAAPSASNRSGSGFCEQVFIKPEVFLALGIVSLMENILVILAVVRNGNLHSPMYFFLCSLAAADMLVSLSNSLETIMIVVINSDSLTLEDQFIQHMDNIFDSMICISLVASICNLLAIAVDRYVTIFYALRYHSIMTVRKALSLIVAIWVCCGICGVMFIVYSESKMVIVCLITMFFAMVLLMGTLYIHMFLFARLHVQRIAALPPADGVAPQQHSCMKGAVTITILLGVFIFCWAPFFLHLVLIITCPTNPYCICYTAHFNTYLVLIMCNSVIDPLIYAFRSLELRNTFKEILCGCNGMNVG
# Chain of Melanocortin receptor 4 (Rattus norvegicus) (P70596 whole entry): as the sequence (P70596 whole entry) above
# Chain of Melanocyte-stimulating hormone receptor (Homo sapiens) (Q01726 whole entry, looked up): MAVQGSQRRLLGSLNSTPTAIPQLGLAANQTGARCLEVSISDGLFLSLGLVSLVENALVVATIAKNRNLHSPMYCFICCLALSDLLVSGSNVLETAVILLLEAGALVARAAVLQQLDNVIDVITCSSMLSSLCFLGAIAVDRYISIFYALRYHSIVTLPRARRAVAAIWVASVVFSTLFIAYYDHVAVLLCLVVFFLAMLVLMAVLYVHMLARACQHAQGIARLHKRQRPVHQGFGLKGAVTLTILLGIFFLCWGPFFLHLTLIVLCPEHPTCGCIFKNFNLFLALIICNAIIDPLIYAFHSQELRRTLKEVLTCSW
# Chain of Melanocortin receptor 5 (Rattus norvegicus) (P35345 whole entry): as the sequence (P35345 whole entry) above
# Chain of Melanocortin receptor 3 (Rattus norvegicus) (P32244 whole entry): as the sequence (P32244 whole entry) above
compound,measurement,setting,value
Cn1nnnc1CC1(C2CCCCC2)CCN(C(=O)[C@@H](Cc2ccc(Cl)cc2)NC(=O)[C@H]2Cc3ccccc3CN2)CC1,Activity,Melanocortin receptor 5 [1],51%
same,EC50,Melanocortin receptor 4 [2],0.6 nM
same,Selectivity,[3],277
same,Selectivity,[4],100
same,IC50,Melanocortin receptor 4 [5],0.3 nM
same,Activity,Melanocortin receptor 3 [6],50%
same,EC50,Melanocortin receptor 3 [7],59 nM
same,Activity,Melanocortin receptor 4 [8],103%
same,EC50,Melanocortin receptor 5 [9],127 nM
CS(=O)(=O)N1CC2(CCN(C(=O)[C@@H](Cc3ccccc3)NC(=O)[C@@H](N)Cc3c[nH]cn3)CC2)c2ccccc21,EC50,Melanocortin receptor 4 [2],500 nM
CS(=O)(=O)N1CC2(CCN(C(=O)[C@@H](Cc3ccc4ccccc4c3)NC(=O)[C@@H](N)Cc3cnc[nH]3)CC2)c2ccccc21,IC50,Melanocortin receptor 4 [5],108 nM
Cn1nnc(CC2(C3CCCCC3)CCN(C(=O)[C@@H](Cc3ccc(Cl)cc3)NC(=O)[C@H]3Cc4ccccc4CN3)CC2)n1,EC50,Melanocortin receptor 4 [2],9.6 nM
same,IC50,Melanocortin receptor 4 [5],1.2 nM
same,Activity,Melanocortin receptor 3 [10],24%
same,Activity,Melanocortin receptor 4 [8],87%
same,EC50,Melanocortin receptor 5 [9],1000 nM
O=C(N[C@@H](Cc1ccc(Cl)cc1)C(=O)N1CCC(Cn2cncn2)(C2CCCCC2)CC1)[C@@H]1Cc2ccccc2CN1,Activity,Melanocortin receptor 5 [1],5%
same,Activity,Melanocortin receptor 3 [6],4%
same,Activity,Melanocortin receptor 4 [8],34%
O=C(N[C@@H](Cc1ccc(Cl)cc1)C(=O)N1CCC(Cn2cncn2)(C2CCCCC2)CC1)[C@H]1Cc2ccccc2CN1,Activity,Melanocortin receptor 5 [1],2%
same,Activity,Melanocortin receptor 3 [6],1%
same,Activity,Melanocortin receptor 4 [8],9%
O=C(N[C@H](Cc1ccc(Cl)cc1)C(=O)N1CCC(Cc2nnn[nH]2)(C2CCCCC2)CC1)[C@H]1Cc2ccccc2CN1,Activity,Melanocortin receptor 5 [1],15%
same,EC50,Melanocortin receptor 4 [2],771 nM
same,Selectivity,[3],53
same,Selectivity,[4],19
same,IC50,Melanocortin receptor 4 [5],238 nM
same,Activity,Melanocortin receptor 3 [6],10%
same,Activity,Melanocortin receptor 4 [8],79%
O=C(N[C@H](Cc1ccc(Cl)cc1)C(=O)N1CCC(Cn2cncn2)(C2CCCCC2)CC1)[C@H]1Cc2ccccc2CN1,Activity,Melanocortin receptor 5 [1],61%
same,Activation,[11],65%
same,EC50,Melanocortin receptor 3 [12],1320 nM
same,clearance,[13],27.6 mL/min/kg
same,Vdss,[14],2.79 L/kg
same,IC50,Melanocortin receptor 5 [15],326 nM
same,Activation,[16],95%
same,EC50,Melanocortin receptor 5 [17],> 3000 nM
same,half-life,[18],1.2 h
same,half-life,[19],0.6 h
same,Tmax,[20],1 h
same,bioavailability,[21],14%
same,IC50,Melanocortin receptor 5 [22],1570 nM
same,Activation,[23],58%
same,Tmax,[24],1.5 h
same,bioavailability,[25],16%
same,Activity,Melanocortin receptor 3 [6],32%
same,IC50,Melanocortin receptor 3 [26],1880 nM
same,EC50,Melanocortin receptor 5 [27],737 nM
same,Vdss,[28],3.6 L/kg
same,EC50,Melanocortin receptor 4 [29],2.9 nM
same,Activation,Melanocortin receptor 5 [30],61%
same,Activation,[31],99%
same,IC50,Melanocortin receptor 4 [32],0.6 nM
same,EC50,Melanocortin receptor 5 [9],736 nM
same,clearance,[33],84 mL/min/kg
same,Activation,Melanocortin receptor 3 [34],32%
O=C(N[C@H](Cc1ccc(Cl)cc1)C(=O)N1CCC(Cn2cncn2)(C2CCCCC2)CC1)[C@@H]1Cc2ccccc2CN1,Activity,Melanocortin receptor 5 [1],19%
same,Activity,Melanocortin receptor 3 [6],7%
same,Activity,Melanocortin receptor 4 [8],67%
same,EC50,Melanocortin receptor 5 [9],271 nM
